Experimental data: patent publication US11312721B2 (priority 2015, dated 2022)
pKi: −log10 of the molar value.

What was measured:
GABAA receptors (α5β2γ2) = molecular target: T1, GABAA receptors (α5β2γ2) (Homo sapiens, UniProt P18507+P31644); experiment: Positive allosteric modulator activity: potentiation of EC20 GABA current in oocytes; format: cell-based; details: read-out: GABA α5 functional potentiation
T1 construct: expressed in transfected cells
Procedure: On day 1, 1 ng/32 nL of GABAA α5β2γ2 cDNA was injected into one oocyte. Test starts on day 2. The cDNA injected to the oocytes was a mix of alpha, beta and gamma, their ratio is 1:1:10 (by weight) and the total weight of the mixed 3 subunits to be injected in one oocyte was 1 ng in 32 nl volume. The injected oocytes can also be tested on day 3. In such case, the cDNA amount injected to the oocytes should be reduced by 20%.
1). 8 oocytes were placed in 8 chambers of OpusXpress and superfused with Modified Barth's Saline (MBS) at 3 mL/min. Glass electrodes back-filled with 3M KCl (0.5-3 megaohms) were used.
1). Repeat the above steps 1), 2) and 3) in the control test.
2). […] Divide Itest by IGABA to obtain potentiation (%).
3). Discard all tested oocytes, new oocytes were used and the above steps 1) and 2) were repeated to test second concentration of the same compound. Each oocyte was used for only one concentration test for a single test compound. The steps were repeated for other test compounds.

[1] = molecular target: T2, α5β3γ2 GABAA receptors (Ltk cells) (Homo sapiens, UniProt P18507+P31644); experiment: Binding activity on GABAAR: inhibition of [3H]Ro15-1788 binding
T2 construct: membranes
Procedure: Tissue culture and Membrane Preparation: The binding was performed on Ltk cells stably expressing GABAA receptors: α1β1γ2, α2β3γ2, α3β3γ2 and α5β3γ2 (provided by Merck Co., NJ, USA). Cells were seeded in 100 mm culture plates in DMEM/F12 medium containing 10% serum and antibiotics in 5% CO2 and allowed to grow for 1-2 days. GABAAR expression was then induced by dexamethasone as follows: 0.5 μM for 1 day for α5 containing and 2 μM for 3 days for α1, α2 and α3 containing GABAARs. After induction, cells were collected by scraping into Dulbecco's Phosphate buffered saline (DPBS, pH 7.4, Invitrogen, Carlsbad, Calif., USA) and centrifuged at 150×g for 10 min. The pellet was washed twice by re-suspension and centrifugation. The cell pellets from at least 5 different preps were combined, suspended in the binding assay buffer (50 mM KH2PO4; 1 mM EDTA; 0.2 M KCl, pH 7.4) and membranes prepared by sonication (3-5 times, 30 sec) using Branson Sonifier 150 (G. Heinmann, Germany). Protein content was determined using BCA assay (Bio-Rad Labs, Reinach, Switzerland) with Bovine Serum Albumin (Sigma Aldrich, St. Louis, Mo., USA) as the standard. Aliquots were prepared and stored at −20° C. for further use in binding assays.
Ligand Binding: Saturation binding curves were obtained by incubating membranes with increasing concentrations (0.01-8 nM) of [^3H]Ro15-1788 (Flumazepil, 75-85 Ci/mmol, PerkinElmer, MA, USA), with nonspecific binding measured in the presence of 10 μM diazepam.
All binding assays were performed for 1 h at 4° C. in assay buffer. The total assay volume was 0.5 ml containing 0.2 mg/ml protein for α5 and 0.4 mg/ml for α1, α2, and α3 containing GABAAR membranes. Incubations were terminated by filtration through GF/B filters using a 24-Cell Harvestor (Brandel, Gaithersburg, Md., USA) followed by 3 washes with ice-cold assay buffer. Filters were transferred to scintillation vials, 5 ml scintillation liquid added, vortex-mixed and kept in dark. Next day, radioactivity was obtained using a scintillation counter (Beckman Coulter, Brea, Calif., USA). All assays were performed in triplicate.
Data Analyses: Saturation and inhibition curves were obtained using GraphPad Prism software (GraphPad Software, Inc., CA, USA).

T2 sequence (P31644 32-462): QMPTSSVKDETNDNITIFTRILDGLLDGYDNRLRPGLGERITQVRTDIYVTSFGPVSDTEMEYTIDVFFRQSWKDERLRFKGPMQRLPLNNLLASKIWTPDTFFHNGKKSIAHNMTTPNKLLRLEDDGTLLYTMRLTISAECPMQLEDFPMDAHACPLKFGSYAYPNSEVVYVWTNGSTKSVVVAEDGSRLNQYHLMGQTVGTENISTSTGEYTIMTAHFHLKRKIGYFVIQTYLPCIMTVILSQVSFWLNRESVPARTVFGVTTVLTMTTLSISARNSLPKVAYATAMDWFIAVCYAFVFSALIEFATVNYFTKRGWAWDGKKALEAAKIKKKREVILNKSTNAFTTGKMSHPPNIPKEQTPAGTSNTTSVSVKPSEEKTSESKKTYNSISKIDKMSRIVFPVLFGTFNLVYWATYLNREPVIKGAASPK
T2 sequence (P28472 26-473 partner): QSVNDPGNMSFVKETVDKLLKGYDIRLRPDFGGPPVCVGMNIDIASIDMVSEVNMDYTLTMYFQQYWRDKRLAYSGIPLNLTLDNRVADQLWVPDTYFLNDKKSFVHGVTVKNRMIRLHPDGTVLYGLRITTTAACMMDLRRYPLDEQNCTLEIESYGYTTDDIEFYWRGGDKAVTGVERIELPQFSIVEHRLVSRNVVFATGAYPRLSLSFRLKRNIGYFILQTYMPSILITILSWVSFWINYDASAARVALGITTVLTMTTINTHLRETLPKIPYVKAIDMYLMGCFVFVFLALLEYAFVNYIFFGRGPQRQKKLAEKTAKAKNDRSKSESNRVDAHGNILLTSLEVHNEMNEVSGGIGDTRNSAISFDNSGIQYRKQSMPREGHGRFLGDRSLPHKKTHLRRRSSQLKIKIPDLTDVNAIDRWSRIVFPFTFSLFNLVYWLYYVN
T2 sequence (P18507 40-475): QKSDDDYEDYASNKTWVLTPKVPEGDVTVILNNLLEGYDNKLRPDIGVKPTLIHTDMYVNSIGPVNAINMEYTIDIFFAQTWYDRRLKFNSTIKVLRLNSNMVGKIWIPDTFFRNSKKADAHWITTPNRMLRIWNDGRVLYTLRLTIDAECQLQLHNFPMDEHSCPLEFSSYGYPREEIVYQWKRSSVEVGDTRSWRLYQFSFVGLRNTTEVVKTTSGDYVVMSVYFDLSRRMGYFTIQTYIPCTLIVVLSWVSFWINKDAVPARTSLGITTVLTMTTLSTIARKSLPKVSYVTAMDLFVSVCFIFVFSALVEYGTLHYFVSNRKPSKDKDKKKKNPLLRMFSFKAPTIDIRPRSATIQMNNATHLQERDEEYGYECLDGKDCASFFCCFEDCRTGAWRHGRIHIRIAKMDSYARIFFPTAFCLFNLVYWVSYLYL
T1 sequence (P31644 32-462): as the sequence (P31644 32-462) above
T1 sequence (P47870 25-512 partner limits assumed): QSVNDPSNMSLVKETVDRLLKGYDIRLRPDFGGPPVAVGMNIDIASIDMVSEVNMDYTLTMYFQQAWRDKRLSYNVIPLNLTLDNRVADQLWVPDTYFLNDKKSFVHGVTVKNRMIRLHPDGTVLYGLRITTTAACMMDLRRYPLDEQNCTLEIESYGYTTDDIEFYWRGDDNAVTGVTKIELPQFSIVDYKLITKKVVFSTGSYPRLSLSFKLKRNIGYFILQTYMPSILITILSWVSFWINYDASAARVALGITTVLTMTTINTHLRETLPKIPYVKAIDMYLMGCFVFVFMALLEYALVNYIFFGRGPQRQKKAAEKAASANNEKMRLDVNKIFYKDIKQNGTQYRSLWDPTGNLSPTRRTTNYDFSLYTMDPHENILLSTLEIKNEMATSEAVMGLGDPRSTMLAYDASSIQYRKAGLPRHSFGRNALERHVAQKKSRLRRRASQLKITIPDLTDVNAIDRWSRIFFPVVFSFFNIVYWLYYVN
T1 sequence (P18507 40-475): as the sequence (P18507 40-475) above

## COc1ccc2c(c1)-n1nnc(COc3ccccc3)c1Cc1c(C#N)ncn1-2 [Compound 224]
GABAA receptors (α5β2γ2)
  activation at 0.1 µM: 20 to 49%
[1]
  pKi: > 7.00

## FC(F)=Cc1ncn2c1Cn1c(COc3ccccc3)nnc1-c1cc(Cl)ccc1-2 [Compound 199]
GABAA receptors (α5β2γ2)
  activation at 0.1 µM: 20 to 49%
[1]
  pKi: > 7.00

## COc1ccc2c(c1)-n1nnc(COc3ccc(F)cc3)c1Cc1c(C#N)ncn1-2 [Compound 222]
GABAA receptors (α5β2γ2)
  activation at 0.1 µM: 20 to 49%
[1]
  pKi: > 7.00

## COCc1nnc2n1Cc1c(C#Cc3ccccc3C)ncn1-c1ccc(Cl)cc1-2 [Compound 293]
GABAA receptors (α5β2γ2)
  activation at 0.1 µM: 20 to 49%
[1]
  pKi: > 7.00

## COc1ccc2c(c1)-c1nnc(COCc3cccc(F)c3)n1Cc1c(-c3noc(C(C)C)n3)ncn1-2 [Compound 183]
GABAA receptors (α5β2γ2)
  activation at 0.1 µM: 20 to 49%
[1]
  pKi: > 7.00

## CCOCc1nnc2n1Cc1c(C3=N[C@H](c4ccccc4)CO3)ncn1-c1ccc(Cl)cc1-2 [Compound 271]
GABAA receptors (α5β2γ2)
  activation at 0.1 µM: > 50%
[1]
  pKi: > 7.00

## CC(C)c1nc(-c2ncn3c2Cn2c(COc4cccc(F)c4)nnc2-c2cc(F)ccc2-3)no1 [Compound 188]
GABAA receptors (α5β2γ2)
  activation at 0.1 µM: 20 to 49%
[1]
  pKi: > 7.00

## CCOCc1nnc2n1Cc1c(-c3nc(C)no3)ncn1-c1ccc(Cl)cc1-2 [Compound 255]
GABAA receptors (α5β2γ2)
  activation at 0.1 µM: 20 to 49%
[1]
  pKi: > 7.00

## COCc1nnc2n1Cc1c(C3=NCCO3)ncn1-c1ccc(Cl)cc1-2 [Compound 238]
GABAA receptors (α5β2γ2)
  activation at 0.1 µM: 20 to 49%
[1]
  pKi: > 7.00

## COc1ccc2c(c1)-c1nnc(COCc3cccnc3)n1Cc1c(-c3noc(C(C)C)n3)ncn1-2 [Compound 203]
GABAA receptors (α5β2γ2)
  activation at 0.1 µM: 20 to 49%
[1]
  pKi: > 7.00

## COc1ccc2c(c1)-n1nncc1Cc1c(C3=N[C@H](c4ccccc4)CO3)ncn1-2 [Compound 290]
GABAA receptors (α5β2γ2)
  activation at 0.1 µM: 20 to 49%
[1]
  pKi: > 7.00

## COCc1nnc2n1Cc1c(C3=N[C@@H](c4ccccc4)CO3)ncn1-c1ccc(Cl)cc1-2 [Compound 264]
GABAA receptors (α5β2γ2)
  activation at 0.1 µM: 20 to 49%
[1]
  pKi: > 7.00

## COc1ccc2c(c1)-n1nnc(COc3cccc(Br)c3)c1Cc1c(C#N)ncn1-2 [Compound 225]
GABAA receptors (α5β2γ2)
  activation at 0.1 µM: 20 to 49%
[1]
  pKi: > 7.00

## COc1ccc2c(c1)-n1nnc(Cc3cccnc3)c1Cc1c(C#N)ncn1-2 [Compound 210]
GABAA receptors (α5β2γ2)
  activation at 0.1 µM: 20 to 49%
[1]
  pKi: > 7.00

## COCc1nnc2n1Cc1c(-c3ncco3)ncn1-c1ccc(Cl)cc1-2 [Compound 249]
GABAA receptors (α5β2γ2)
  activation at 0.1 µM: 20 to 49%
[1]
  pKi: > 7.00

## COc1ccc2c(c1)-c1nnc(COc3cccc(F)c3)n1Cc1c(C#N)ncn1-2 [Compound 196]
GABAA receptors (α5β2γ2)
  activation at 0.1 µM: 20 to 49%
[1]
  pKi: > 7.00

## Clc1ccc2c(c1)-c1nnc(COc3ccccc3)n1Cc1c(Br)ncn1-2 [Compound 202]
GABAA receptors (α5β2γ2)
  activation at 0.1 µM: 20 to 49%
[1]
  pKi: > 7.00

## COCc1nnc2n1Cc1c(-c3nc(C)no3)ncn1-c1ccc(Cl)cc1-2 [Compound 198]
GABAA receptors (α5β2γ2)
  activation at 0.1 µM: 20 to 49%
[1]
  pKi: > 7.00

## CC(C)c1nc(-c2ncn3c2Cn2c(COc4cccnc4)nnc2-c2cc(F)ccc2-3)no1 [Compound 185]
GABAA receptors (α5β2γ2)
  activation at 0.1 µM: > 50%
[1]
  pKi: > 7.00

## CC(C)c1nc(-c2ncn3c2Cn2c(COc4ccc(F)cc4)nnc2-c2cc(F)ccc2-3)no1 [Compound 189]
GABAA receptors (α5β2γ2)
  activation at 0.1 µM: 20 to 49%
[1]
  pKi: > 7.00

## COc1ccc2c(c1)-n1nncc1Cc1c(-c3nc(C(C)C)no3)ncn1-2 [Compound 257]
GABAA receptors (α5β2γ2)
  activation at 0.1 µM: 20 to 49%
[1]
  pKi: > 7.00

## COCc1nnc2n1Cc1c(C3=NC(C)CO3)ncn1-c1ccc(Cl)cc1-2 (stereo not shown) [Compound 243]
GABAA receptors (α5β2γ2)
  activation at 0.1 µM: 20 to 49%
[1]
  pKi: > 7.00

## COc1ccc2c(c1)-c1nnc(COCc3ccccc3F)n1Cc1c(-c3noc(C(C)C)n3)ncn1-2 [Compound 184]
GABAA receptors (α5β2γ2)
  activation at 0.1 µM: 20 to 49%
[1]
  pKi: > 7.00

## COc1ccc2c(c1)-n1nnc(COc3ccc(F)cc3)c1Cc1c(-c3noc(C)n3)ncn1-2 [Compound 180]
GABAA receptors (α5β2γ2)
  activation at 0.1 µM: 20 to 49%
[1]
  pKi: > 7.00

## COc1ccc2c(c1)-n1nnc(COc3ccccc3F)c1Cc1c(-c3noc(C)n3)ncn1-2 [Compound 181]
GABAA receptors (α5β2γ2)
  activation at 0.1 µM: 20 to 49%
[1]
  pKi: > 7.00

## CCc1nc(-c2ncn3c2Cc2c(Cc4ccc(F)cc4)nnn2-c2cc(OC)ccc2-3)no1 [Compound 195]
GABAA receptors (α5β2γ2)
  activation at 0.1 µM: 20 to 49%
[1]
  pKi: > 7.00
